Where “and” joins values, the source holds several entries; their conditions need not be identical. Identical values can stand only once. Like-named read-outs stand apart in the source and are kept apart here.
Key:
[1] = system: farmed Atlantic salmon; assay: Observation of fish during field well boat treatment (Example 4); type: in vivo; details: 20 ppm, 60 minutes
Protocol: The effectiveness of imidacloprid against pre-adult and adult stages of L. salmonis and Caligus sp. infections on farmed Atlantic salmon was investigated by performing pre- and post-treatment sea lice counts on salmon undergoing a treatment with imidacloprid. This trial was conducted at a commercial salmon farm in Norway. The salmon were pumped onto a well boat and were exposed to 20 ppm imidacloprid for 60 minutes. The average weight of the salmon was 3.5 kg and the average number of salmon per pen was 180,000. 30 fish per pen were assessed for L. salmonis and Caligus sp., and the number of each L. salmonis life stage found was recorded. This was performed within 24 hours prior to treatment, and within 24 hours after treatment.
The numbers of sea lice observed per fish for this trial for each of the four tested pens according to sea lice life cycle state, pre- or post-administration of active are presented in Table 5.

[2] = system: azamethiphos- and deltamethrin-resistant sea lice; assay: In vitro bath exposure of isolated sea lice (Example 6); details: 60 minutes exposure; for % effect: registered approx. 20 h after end of exposure
Protocol: A trial was performed to ensure there was no cross-resistance between azamethiphos- and deltamethrin-resistant sea lice and neonicotinoids. Both pre-adult and adult stages (mobile stages) of both sexes were used, and they were equally distributed among groups. The sea lice were exposed to imidacloprid for 60 minutes, azamethiphos for 60 minutes and deltamethrin for 30 minutes in one litre baths at a range of concentrations (Tables 6, 7 and 8). The sea lice were transferred to clean aerated seawater after treatment. The temperature of the seawater during the experiment was 12° C., but during exposure the temperature raised to approx. 14° C. in regimes exposed for 60 min. (imidacloprid and azamethiphos) and to 13° C. for the regime exposed in 30 minutes (deltamethrin).
The numbers of live and immobilised (including killed) lice in each regime were registered approximately 20 h after end of exposure. Each louse was individually investigated.

[3] = system: Lepeophtheirus salmonis; details: 20 ppm (nitenpyram 19 ppm); for percentage of sea lice that dropped from treated fish at the end of the treatment period: culled fish
Protocol: The fish were acclimatised until normal feeding behaviour resumed, up to a maximum of 10 days, prior to challenge. The fish were housed in 750 litre tanks at a stocking density of no greater than 35 kg/m3. Tanks were provided with a continuous supply of seawater at a flow rate greater than 5 L/min at a temperature of 4.8-10.4° C. The photoperiod was set at 12 hours light: 12 hours dark.
The fish were challenged in a static bath with copepodid instar of Lepeophtheirus salmonis with the appearance of egg strings freshly removed from adult female lice at a target titre of 1,250-1,700 copepodids per tank
Egg strings were harvested from gravid sea lice and incubated in upwelling chambers until nauplii eclosion. Nauplii were allowed to moult through to the copepodid instar (5 days at approx. 10° C.) and then the tank water was filtered through a 100 μm mesh before re-suspending the copepodids in 225 mL of sea water. A 25 mL sample was removed which was then split into 1-2 mL samples in a 24-well plate and the nauplii/copepodids were counted under a stereo microscope. When abundance was sufficient and a minimum of 80% were copepodids the fish were challenged for 8 hours under static flow in the dark.
Fish were randomly selected from tanks, lightly sedated in a 90 ppm MS222 solution sufficient only to induce loss of equilibrium before being sacrificed by a non-recoverable blow to the head. Between 4 and 33 fish were required per treatment.
Culled fish were then suspended in treatment tanks. Fish were suspended in the tank horizontally from cable ties (one through the opercular cavity, one around the peduncle) and wire attached to a wooden rod). One 20 L tank of test item at 20 ppm was used per day. Lice on culled fish were exposed for either 5, 10, 15, 30 or 60 minutes (negative control was only exposed for 60 minutes as this would cover the longest exposure period to be tested). The order within treatment was randomised.
(§1) Lice were monitored continuously for the duration of the exposure and behavioural observations noted, including detachment of lice from fish. At the end of exposure lice were either removed from the tank or fish, placed into small vented plastic screw-top containers (125 mL, LDPE, 25 mm hole drilled into lid and secured with 200 μm mesh), and transferred to a clean tank supplied with filtered sea water and held there for 24 h. Lice which had detached from fish were kept separate from those that had not detached.
On the day of exposure, 200 mg of the test ectoparasite treatments was added to 1 L of sea water. Only 192 mg of nitenpyram was supplied. The solution was mechanically stirred for 30 minutes, using a stirring plate and magnetic flea (VWR), at a speed sufficient to generate a strong vortex to ensure a homogenous solution. This was then transferred into an approx. 25 L clear plastic tank containing 9 L of sea water. The solution was then mixed for a further 10 minutes using a small pump (Fluval Sea CP1), which was then removed from the tank prior to addition of fish.
Each treatment requiring 1 to 4 fish per individual treatment per replicate and 2 to 13 fish per group per replicate. Treatments with negative control (sea water), dinotefuran, clothianidin and thiamethoxam were replicated twice, and for imidacloprid three times. There was only one replicate per treatment for nitenpyram. The mean number of lice used per individual treatment was 5.5 to 10, with the mean per group being 6.2-7.2 lice.

[4] = system: Lepeophtheirus salmonis; details: 20 ppm (nitenpyram 19 ppm); for percentage responsiveness for sea lice recovered from fish at the end of the treatment period: 24 h post-treatment; for percentage responsiveness of lice recovered from tank at treatment end at 24 hours post-treatment: lice knocked off fish
Protocol: as §1
24 h post-treatment lice were removed from the screw-top containers to check if they were alive and, if so, if they were responsive. Categories were defined as follows: alive—movement detected; responsive—alive and actively avoids stimulation in a coordinated manner; dead—no movement detected.
Lice defined as responsive could potentially re-attach to a fish. After assessment lice were transferred to 70% alcohol in case determination of instar and sex was required.

[5] = exposure 15 min, * only one louse knocked down
[6] = exposure 30 min, * only one louse knocked down
[7] = exposure 60 min, * only one louse knocked down

O=[N+]([O-])NC1=NCCN1Cc1ccc(Cl)nc1 [imidacloprid]
Fish behaviour observed throughout treatment [1]: no adverse behaviours seen | % effect ([2]; 5 ppm): 30% | % effect ([2]; 10 ppm): 40% and 50% | % effect ([2]; 15 ppm): 100% | % effect ([2]; 20 ppm): 100% | % effect ([2]; 30 ppm): 100% | estimated EC50 value ([2]; immobilisation approx. 20 h after exposure): 7.6 ppm | percentage of sea lice that dropped from treated fish at the end of the treatment period ([3]; exposure 5 min): 0% | knockdown times (mean±SEM) ([3]; exposure 10 min): 481 ± 60 s | percentage of lice for which their knockdown time equalled that of the exposure time ([3]; exposure 10 min): 33.3% | percentage of sea lice that dropped from treated fish at the end of the treatment period ([3]; exposure 10 min): 20.0% | percentage of sea lice that dropped from treated fish at the end of the treatment period ([3]; exposure 15 min): 42.9% | knockdown times (mean±SEM) [3, 5]: 586 ± 114 s | percentage of lice for which their knockdown time equalled that of the exposure time [3, 5]: 28.6% | percentage of sea lice that dropped from treated fish at the end of the treatment period ([3]; exposure 30 min): 41.2% | knockdown times (mean±SEM) [3, 6]: 1029 ± 165 s | percentage of lice for which their knockdown time equalled that of the exposure time [3, 6]: 11.1% | percentage of sea lice that dropped from treated fish at the end of the treatment period ([3]; exposure 60 min): 92.9% | knockdown times (mean±SEM) [3, 7]: 1209 ± 235 s | percentage of lice for which their knockdown time equalled that of the exposure time [3, 7]: 7.7% | percentage responsiveness for sea lice recovered from fish at the end of the treatment period ([4]; exposure 5 min): 100% | percentage responsiveness for sea lice recovered from fish at the end of the treatment period ([4]; exposure 10 min): 100% | percentage responsiveness of lice recovered from tank at treatment end at 24 hours post-treatment ([4]; exposure 10 min): 100% | percentage responsiveness for sea lice recovered from fish at the end of the treatment period ([4]; exposure 15 min): 45% | percentage responsiveness of lice recovered from tank at treatment end at 24 hours post-treatment ([4]; exposure 15 min): 33% | percentage responsiveness for sea lice recovered from fish at the end of the treatment period ([4]; exposure 30 min): 50% | percentage responsiveness of lice recovered from tank at treatment end at 24 hours post-treatment ([4]; exposure 30 min): 10% | percentage responsiveness for sea lice recovered from fish at the end of the treatment period ([4]; exposure 60 min): no lice responsive | percentage responsiveness for sea lice recovered from fish at the end of the treatment period ([4]; exposure 60 min, listed as Imidacloprid): 0% | percentage responsiveness of lice recovered from tank at treatment end at 24 hours post-treatment ([4]; exposure 60 min): 0%

Reference: patent publication US20210244028A1, “TREATMENT FOR REMOVING ECTOPARASITES FROM FISH” (priority 2018, published 2021)
